Ring closure, isolated yield data for seven compounds are collected here from patent US5079341.

Read-outs that look alike come from different tables or passages of the source.

The conditions of the series: amide bond, 33-membered ring, BOP/DMAP.

For `CC[C@@H]1NC(=O)[C@H](CO)N(C)C(=O)[C@H](C(C)C)N(C)C(=O)[C@H](CC(C)C)N(C)C(=O)[C@H](CC(C)C)N(C)C(=O)[C@@H](C)NC(=O)[C@H](C)NC(=O)[C@H](CC(C)C)N(C)C(=O)[C@H](C(C)C)NC(=O)[C@H](CC(C)C)N(C)C(=O)CN(C)C1=O`, the ring closure, isolated yield (from H-MeSer-Abu-Sar-MeLeu-Val-MeLeu-Ala-dAla-MeLeu-MeLeu-MeVal-OH, CH2Cl2, 0.176 mM) is 15%.

As to `CC[C@@H]1NC(=O)[C@H](CCNC(=O)OCC2c3ccccc3-c3ccccc32)NC(=O)[C@H](C(C)C)N(C)C(=O)[C@H](CC(C)C)N(C)C(=O)[C@H](CC(C)C)N(C)C(=O)[C@@H](C)NC(=O)[C@H](C)NC(=O)[C@H](CC(C)C)N(C)C(=O)[C@H](C(C)C)NC(=O)[C@H](CC(C)C)N(C)C(=O)CN(C)C1=O`, the ring closure, isolated yield (from H-Dab(Fmoc)-Abu-Sar-MeLeu-Val-MeLeu-Ala-dAla-MeLeu-MeLeu-MeVal-OH, CH2Cl2, 0.165 mM) came to 37%.

Take `CC[C@@H]1NC(=O)[C@@H]2C[C@@H](O)CN2C(=O)[C@H](C(C)C)N(C)C(=O)[C@H](CC(C)C)N(C)C(=O)[C@H](CC(C)C)N(C)C(=O)[C@@H](C)NC(=O)[C@H](C)NC(=O)[C@H](CC(C)C)N(C)C(=O)[C@H](C(C)C)NC(=O)[C@H](CC(C)C)N(C)C(=O)CN(C)C1=O`: the ring closure, isolated yield (from H-Hyp-Abu-Sar-MeLeu-Val-MeLeu-Ala-dAla-MeLeu-MeLeu-MeVal-OH, CH2Cl2, 0.35 mM) is 30%.

Regarding `CCCC[C@@H]1NC(=O)[C@@H]2C[C@@H](O)CN2C(=O)[C@H](C(C)C)N(C)C(=O)[C@H](CC(C)C)N(C)C(=O)[C@H](CC(C)C)N(C)C(=O)[C@@H](C)NC(=O)[C@H](C)NC(=O)[C@H](CC(C)C)N(C)C(=O)[C@H](C(C)C)NC(=O)[C@H](CC(C)C)N(C)C(=O)CN(C)C1=O`, the ring closure, isolated yield (from H-Hyp-Nle-Sar-MeLeu-Val-MeLeu-Ala-dAla-MeLeu-MeLeu-MeVal-OH, CH2Cl2, 0.4 mM) stood at 26%.

In turn, `CCCC[C@@H]1NC(=O)[C@H](CO)N(C)C(=O)[C@H](C(C)C)N(C)C(=O)[C@H](CC(C)C)N(C)C(=O)[C@H](CC(C)C)N(C)C(=O)[C@@H](C)NC(=O)[C@H](C)NC(=O)[C@H](CC(C)C)N(C)C(=O)[C@H](C(C)C)NC(=O)[C@H](CC(C)C)N(C)C(=O)CN(C)C1=O` registered a ring closure, isolated yield (from H-MeSer-Nle-Sar-MeLeu-Val-MeLeu-Ala-dAla-MeLeu-MeLeu-MeVal-OH, THF/CH2Cl2 1:1, 0.433 mM) of 16%.

For the compound `CCCC[C@@H]1NC(=O)[C@H]([C@@H](C)O)N(C)C(=O)[C@H](C(C)C)N(C)C(=O)[C@H](CC(C)C)N(C)C(=O)[C@H](CC(C)C)N(C)C(=O)[C@@H](C)NC(=O)[C@H](C)NC(=O)[C@H](CC(C)C)N(C)C(=O)[C@H](C(C)C)NC(=O)[C@H](CC(C)C)N(C)C(=O)CN(C)C1=O`, the ring closure, isolated yield (from H-MeThr-Nle-Sar-MeLeu-Val-MeLeu-Ala-dAla-MeLeu-MeLeu-MeVal-OH, CH2Cl2, 0.325 mM) came out at 14%.

`CCC[C@@H]1NC(=O)[C@H](CO)N(C)C(=O)[C@H](C(C)C)N(C)C(=O)[C@H](CC(C)C)N(C)C(=O)[C@H](CC(C)C)N(C)C(=O)[C@@H](C)NC(=O)[C@H](C)NC(=O)[C@H](CC(C)C)N(C)C(=O)[C@H](C(C)C)NC(=O)[C@H](CC(C)C)N(C)C(=O)CN(C)C1=O` displayed a ring closure, isolated yield (from H-MeSer-Nva-Sar-MeLeu-Val-MeLeu-Ala-dAla-MeLeu-MeLeu-MeVal-OH, CH2Cl2/THF 1:1, 3.9 mM) of 20%.
